Measurements: BigSolDB 2.1

In the case of `O=C1OC(=O)[C@H]2[C@@H]1[C@@H]1C=C[C@H]2C1`, the solubility (mole fraction) (in 1,4-dioxane, 288.15 K) is reported as 0.0718, the solubility (mole fraction) (in 1,4-dioxane, 293.15 K) is reported as 0.0836 and the solubility (mole fraction) (in 1,4-dioxane, 298.15 K) is reported as 0.0939. The solubility (mole fraction) (in 1,4-dioxane, 303.15 K) was 0.107, the solubility (mole fraction) (in 1,4-dioxane, 308.15 K) was 0.123 and the solubility (mole fraction) (in 1,4-dioxane, 313.15 K) was 0.136. For the same compound, the solubility (mole fraction) (in 1,4-dioxane, 318.15 K) was 0.154, the solubility (mole fraction) (in 1,4-dioxane, 323.15 K) was 0.173 and the solubility (mole fraction) (in DMF, 278.15 K) was 0.0809. The solubility (mole fraction) (in DMF, 283.15 K) was 0.0925, the solubility (mole fraction) (in DMF, 288.15 K) was 0.106 and the solubility (mole fraction) (in DMF, 293.15 K) was 0.12. The solubility (mole fraction) (in DMF, 298.15 K) was 0.135, the solubility (mole fraction) (in DMF, 303.15 K) was 0.152 and the solubility (mole fraction) (in DMF, 308.15 K) was 0.171. It also gave a solubility (mole fraction) (in DMF, 313.15 K) of 0.186, a solubility (mole fraction) (in DMF, 318.15 K) of 0.208 and a solubility (mole fraction) (in DMF, 323.15 K) of 0.23. For the same compound, the solubility (mole fraction) (in NMP, 278.15 K) was 0.112, the solubility (mole fraction) (in NMP, 283.15 K) was 0.126 and the solubility (mole fraction) (in NMP, 288.15 K) was 0.14. It also gave a solubility (mole fraction) (in NMP, 293.15 K) of 0.156, a solubility (mole fraction) (in NMP, 298.15 K) of 0.172 and a solubility (mole fraction) (in NMP, 303.15 K) of 0.19. The solubility (mole fraction) (in NMP, 308.15 K) was 0.209, the solubility (mole fraction) (in NMP, 313.15 K) was 0.225 and the solubility (mole fraction) (in NMP, 318.15 K) was 0.245. For the same compound, the solubility (mole fraction) (in NMP, 323.15 K) was 0.265, the solubility (mole fraction) (in acetone, 278.15 K) was 0.0395 and the solubility (mole fraction) (in acetone, 283.15 K) was 0.0475. For the same compound, the solubility (mole fraction) (in acetone, 288.15 K) was 0.0559, the solubility (mole fraction) (in acetone, 293.15 K) was 0.0658 and the solubility (mole fraction) (in acetone, 298.15 K) was 0.0776. For the same compound, the solubility (mole fraction) (in acetone, 303.15 K) was 0.0897, the solubility (mole fraction) (in acetone, 308.15 K) was 0.106 and the solubility (mole fraction) (in acetone, 313.15 K) was 0.121. For the same compound, the solubility (mole fraction) (in acetone, 318.15 K) was 0.138, the solubility (mole fraction) (in acetone, 323.15 K) was 0.155 and the solubility (mole fraction) (in ethanol, 278.15 K) was 0.00216. The solubility (mole fraction) (in ethanol, 283.15 K) was 0.00264, the solubility (mole fraction) (in ethanol, 288.15 K) was 0.00354 and the solubility (mole fraction) (in ethanol, 293.15 K) was 0.00441. The solubility (mole fraction) (in ethanol, 298.15 K) was 0.0056, the solubility (mole fraction) (in ethanol, 303.15 K) was 0.00699 and the solubility (mole fraction) (in ethanol, 308.15 K) was 0.00872. The solubility (mole fraction) (in ethanol, 313.15 K) was 0.0109, the solubility (mole fraction) (in ethanol, 318.15 K) was 0.0135 and the solubility (mole fraction) (in ethanol, 323.15 K) was 0.0168. The solubility (mole fraction) (in ethyl acetate, 278.15 K) was 0.0293, the solubility (mole fraction) (in ethyl acetate, 283.15 K) was 0.0338 and the solubility (mole fraction) (in ethyl acetate, 288.15 K) was 0.0413. The solubility (mole fraction) (in ethyl acetate, 293.15 K) was 0.0484, the solubility (mole fraction) (in ethyl acetate, 298.15 K) was 0.0535 and the solubility (mole fraction) (in ethyl acetate, 303.15 K) was 0.0632. The solubility (mole fraction) (in ethyl acetate, 308.15 K) was 0.0737, the solubility (mole fraction) (in ethyl acetate, 313.15 K) was 0.0838 and the solubility (mole fraction) (in ethyl acetate, 318.15 K) was 0.0969. For the same compound, the solubility (mole fraction) (in ethyl acetate, 323.15 K) was 0.11, the solubility (mole fraction) (in isobutyl acetate, 278.15 K) was 0.0199 and the solubility (mole fraction) (in isobutyl acetate, 283.15 K) was 0.0236. It also gave a solubility (mole fraction) (in isobutyl acetate, 288.15 K) of 0.0284, a solubility (mole fraction) (in isobutyl acetate, 293.15 K) of 0.0341 and a solubility (mole fraction) (in isobutyl acetate, 298.15 K) of 0.0396. The solubility (mole fraction) (in isobutyl acetate, 303.15 K) was 0.0468, the solubility (mole fraction) (in isobutyl acetate, 308.15 K) was 0.0552 and the solubility (mole fraction) (in isobutyl acetate, 313.15 K) was 0.0636. It also gave a solubility (mole fraction) (in isobutyl acetate, 318.15 K) of 0.0741, a solubility (mole fraction) (in isobutyl acetate, 323.15 K) of 0.0848 and a solubility (mole fraction) (in isopropyl acetate, 278.15 K) of 0.021. For the same compound, the solubility (mole fraction) (in isopropyl acetate, 283.15 K) was 0.0258, the solubility (mole fraction) (in isopropyl acetate, 288.15 K) was 0.03 and the solubility (mole fraction) (in isopropyl acetate, 293.15 K) was 0.0357. It also gave a solubility (mole fraction) (in isopropyl acetate, 298.15 K) of 0.0417, a solubility (mole fraction) (in isopropyl acetate, 303.15 K) of 0.0489 and a solubility (mole fraction) (in isopropyl acetate, 308.15 K) of 0.0569. It also gave a solubility (mole fraction) (in isopropyl acetate, 313.15 K) of 0.0661, a solubility (mole fraction) (in isopropyl acetate, 318.15 K) of 0.0768 and a solubility (mole fraction) (in isopropyl acetate, 323.15 K) of 0.0878. The solubility (mole fraction) (in methanol, 278.15 K) was 0.00403, the solubility (mole fraction) (in methanol, 283.15 K) was 0.00504 and the solubility (mole fraction) (in methanol, 288.15 K) was 0.00635. The solubility (mole fraction) (in methanol, 293.15 K) was 0.00781, the solubility (mole fraction) (in methanol, 298.15 K) was 0.0101 and the solubility (mole fraction) (in methanol, 303.15 K) was 0.0126. For the same compound, the solubility (mole fraction) (in methanol, 308.15 K) was 0.0157, the solubility (mole fraction) (in methanol, 313.15 K) was 0.0201 and the solubility (mole fraction) (in methanol, 318.15 K) was 0.0246. It also gave a solubility (mole fraction) (in methanol, 323.15 K) of 0.0311, a solubility (mole fraction) (in methyl acetate, 278.15 K) of 0.0358 and a solubility (mole fraction) (in methyl acetate, 283.15 K) of 0.0425. It also gave a solubility (mole fraction) (in methyl acetate, 288.15 K) of 0.0485, a solubility (mole fraction) (in methyl acetate, 293.15 K) of 0.0562 and a solubility (mole fraction) (in methyl acetate, 298.15 K) of 0.0644. It also gave a solubility (mole fraction) (in methyl acetate, 303.15 K) of 0.0754, a solubility (mole fraction) (in methyl acetate, 308.15 K) of 0.0851 and a solubility (mole fraction) (in methyl acetate, 313.15 K) of 0.0973. The solubility (mole fraction) (in methyl acetate, 318.15 K) was 0.11, the solubility (mole fraction) (in methyl acetate, 323.15 K) was 0.125 and the solubility (mole fraction) (in n-butyl acetate, 278.15 K) was 0.0216. For the same compound, the solubility (mole fraction) (in n-butyl acetate, 283.15 K) was 0.0259, the solubility (mole fraction) (in n-butyl acetate, 288.15 K) was 0.031 and the solubility (mole fraction) (in n-butyl acetate, 293.15 K) was 0.0367. For the same compound, the solubility (mole fraction) (in n-butyl acetate, 298.15 K) was 0.0428, the solubility (mole fraction) (in n-butyl acetate, 303.15 K) was 0.0505 and the solubility (mole fraction) (in n-butyl acetate, 308.15 K) was 0.0587. It also gave a solubility (mole fraction) (in n-butyl acetate, 313.15 K) of 0.0683, a solubility (mole fraction) (in n-butyl acetate, 318.15 K) of 0.0788 and a solubility (mole fraction) (in n-butyl acetate, 323.15 K) of 0.0908. It also gave a solubility (mole fraction) (in n-pentyl acetate, 278.15 K) of 0.0192, a solubility (mole fraction) (in n-pentyl acetate, 283.15 K) of 0.0231 and a solubility (mole fraction) (in n-pentyl acetate, 288.15 K) of 0.0276. For the same compound, the solubility (mole fraction) (in n-pentyl acetate, 293.15 K) was 0.0327, the solubility (mole fraction) (in n-pentyl acetate, 298.15 K) was 0.0388 and the solubility (mole fraction) (in n-pentyl acetate, 303.15 K) was 0.0455. For the same compound, the solubility (mole fraction) (in n-pentyl acetate, 308.15 K) was 0.0535, the solubility (mole fraction) (in n-pentyl acetate, 313.15 K) was 0.0626 and the solubility (mole fraction) (in n-pentyl acetate, 318.15 K) was 0.0726. It also gave a solubility (mole fraction) (in n-pentyl acetate, 323.15 K) of 0.0837, a solubility (mole fraction) (in n-propyl acetate, 278.15 K) of 0.0249 and a solubility (mole fraction) (in n-propyl acetate, 283.15 K) of 0.0303. It also gave a solubility (mole fraction) (in n-propyl acetate, 288.15 K) of 0.0357, a solubility (mole fraction) (in n-propyl acetate, 293.15 K) of 0.0414 and a solubility (mole fraction) (in n-propyl acetate, 298.15 K) of 0.0486. It also gave a solubility (mole fraction) (in n-propyl acetate, 303.15 K) of 0.0565, a solubility (mole fraction) (in n-propyl acetate, 308.15 K) of 0.0661 and a solubility (mole fraction) (in n-propyl acetate, 313.15 K) of 0.0761. The solubility (mole fraction) (in n-propyl acetate, 318.15 K) was 0.0878 and the solubility (mole fraction) (in n-propyl acetate, 323.15 K) was 0.101.
